Source: patent US20250269072A1, “PROCESSES FOR PREPARING RADIOLABELLED CONJUGATES” (CENTENARY INSTITUTE OF CANCER MEDICINE AND CELL BIOLOGY, priority 2021, published 2025)
Like-named read-outs stand apart in the source and are kept apart here.

How the values were obtained:
[1] = cited from earlier work
proliferating cells = conditions: cited from earlier work
[2] = tested on: quiescent endothelial cells; conditions: quiescent endothelial cells in vitro; cited from earlier work
angiogenesis = conditions: in vivo; cited from earlier work
[3] = Radiolysis of ^177Lu-CDI after synthesis (radio-HPLC); assay type: physicochemical
Protocol: Labelling of CDI (54 μg) with ^177Lutetium (^177Lu) was performed in 0.083 M sodium acetate buffer at pH 5.0. 177Lu (500 MBq) and ascorbic acid (0.002 M) were added and the mixture was incubated at 85° C. for 30 min. In a similar reaction, CDI was labelled with ^177Lu in the presence of 0.01 M ascorbic acid and 0.028 M GSH.
The experiments using the radioisotope ^177Lu were performed on a Shimadzu LC-20 series LC system with two LC-20AP pumps, an SPD-20A UV/VIS detector and analysed using the LabLogic Laura software (version 4.2.11.129 SP2). […] The analytical column was an Alltima HP C18 150×4.6 mm 5 μm particle size (Hichrom, Berkshire, UK). The column was equilibrated in a mixture of 0.1% (v/v) trifluoroacetic acid in MiliQ water (mobile phase A) and acetonitrile (mobile phase B; 98/2, v/v). Samples (100 μL) were loaded on the column using the autosampler at room temperature. Products were eluted using a gradient of […] mobile phase B in mobile phase A over 0-18-28-38-42 min (^177Lu) or 0-18-28-32-33 min (^175Lu) at a flowrate of 0.6 mL/min. Absorbance was measured at 210 nm, 256 nm, and 280 nm and radioactivity was detected using a LabLogic Dual Scan-RAM.

[4] = ^177Lu-CDI dosimetry estimated from ^68Ga-CDI biodistribution and kinetics; design: species or system human
Description: The biodistribution and kinetics of ^68Ga-CDI was used to estimate […] dosimetry. […] These are similar to measured renal doses from ^177Lu-dotatate and ^177Lu-PSMA. Based on these estimations and comparability of renal dose to ^177Lu-dotatate and ^177Lu-PSMA, the initial […] level of ^177Lu-CDI will be approximately 2.0 GBq.

[5] = In vitro stability of labelled NODAGA-GSAO products at room temperature (HPLC); assay type: physicochemical
Protocol: The in vitro stability of the complexed product is an important determinant for the potential clinical use of a therapeutic compound. Post-labelling stability was assessed by incubation of the ^175Lu- and ^63Cu-labelled NODAGA-GSAO products at room temperature.
The percentage of labelling at different time-points following formation of the isotope-NODAGA-GSAO complex was measured. Results are shown in FIG. 5 for A) the ^175Lu-labelled product obtained from incubation for 30 minutes at pH 5.0 at 80° C. and B) the ^63Cu-labelled product obtained from incubation for 30 minutes at pH 5.0 at room temperature. At certain time points, aliquots were taken and the labelling (black circles) of NODAGA-GSAO were assessed by HPLC. Data are from one or two (average±S.D. of the two measurements) experiments.

[6] = Afshar-Oromieh et al., 4 subjects

For `O=C([O-])CN(CCN(CC(=O)[O-])Cc1cc(CCC(=O)NCCCCCC(=O)NCCCC[C@H](NC(=O)N[C@@H](CCC(=O)O)C(=O)O)C(=O)O)ccc1[O-])Cc1cc(CCC(=O)O)ccc1[O-].[68Ga+3].[OH3+]` [^68Ga PSMA], which mean effective dose [1, 6] is on record?
Its mean effective dose is 2.3E-02 mSv/MBq.

What about the renal dose [1, 6] of the same compound?
Its renal dose is 2.6E-01 mSv/MBq.

What about the urinary bladder dose [1, 6] of the same compound?
Its urinary bladder dose is 1.3E-01 mSv/MBq.

And the Effective Dose ([1]; Pfob et al., 5 subjects)?
The Effective Dose was 2.37E-02 mSv/MBq.

What about the renal dose ([1]; Pfob et al., 5 subjects) of the same compound?
Its renal dose is 1.21E-01 mSv/MBq.

What about the urinary bladder dose ([1]; Pfob et al., 5 subjects) of the same compound?
The urinary bladder dose was 1.64E-01 mSv/MBq.

Which results are given for `N[C@@H](CCC(=O)N[C@@H](CSCC(=O)Nc1ccc([As](O)O)cc1)C(=O)NCC(=O)O)C(=O)O` [GSAO, 4-(N—(S-glutathionylacetyl)amino)phenylarsenous acid]?
toxicity (proliferating cells): toxic to proliferating cells; toxicity [2]: nontoxic to quiescent endothelial cells in vitro; effect on angiogenesis (angiogenesis): inhibits angiogenesis in vivo

Which radiolysis after synthesis ([3]; […] incubation at room temperature, 0.002 M ascorbic acid) does the source give for `O=C(O)CNC(=O)[C@H](CSCC(=O)Nc1ccc([As](O)O)cc1)NC(=O)CC[C@H](NC(=O)CCC1C(=O)[O][177Lu]2[O]C(=O)CN3CCN(CCN1CC3)CC(=O)[O]2)C(=O)O` (stereo partly drawn) [^177Lu-NODAGA-GSAO] here?
Its radiolysis after synthesis is “did not show an increase in radiolysis”.

What about the radiolysis ([3]; labelling in presence of 0.01 M ascorbic acid and 0.028 M GSH) of the same compound?
The radiolysis was “prevented radiolysis during and up to 72 h post CDI labelling”.

What about the estimated renal dose ([4]; combined physical decay and biological clearance model) of the same compound?
The estimated renal dose was 0.36 mGy/MBq.

And the estimated renal dose ([4]; physical decay only model)?
Its estimated renal dose is 0.98 mGy/MBq.

For `O=C(O)CNC(=O)[C@H](CSCC(=O)Nc1ccc([As](O)O)cc1)NC(=O)CC[C@H](NC(=O)CCC1C(=O)[O][175Lu]2[O]C(=O)CN3CCN(CCN1CC3)CC(=O)[O]2)C(=O)O` (stereo partly drawn) [^175Lu-NODAGA-GSAO], which by-products ([5]; room temperature storage) is on record?
The by-products was 4-7.5 % of total AUC.

What about the labelling remaining ([5]; room temperature, after 14 days of storage) of the same compound?
Its labelling remaining is about 90%.
